ChEMBL document CHEMBL5113463, “Discovery and preclinical evaluations of JBD0131, a novel nitrodihydro-imidazooxazole anti-tuberculosis agent” (Bioorg Med Chem Lett, 2022)
≈ marks a conversion by molar mass, not a printed value.

Test system: Mycobacterium tuberculosis
Experiment: Antimycobacterial activity against clinical isolate multidrug resistant Mycobacterium tuberculosis H37Rv assessed as bacterial growth inhibition
Format: functional

Work on C[C@]1(CN2Cc3nc(-c4ccc(F)cc4)sc3C2)CN=C(N)O1 yielded an MIC50 of 0.011 µg/mL (≈ 0.0331 µM) and an MIC90 of 0.035 µg/mL (≈ 0.105 µM).
In the case of CO[C@H]1/C=C/O[C@@]2(C)Oc3c(C)c(O)c4c(O)c(c(/C=N/N5CCN(C)CC5)c(O)c4c3C2=O)NC(=O)/C(C)=C\C=C\[C@H](C)[C@H](O)[C@@H](C)[C@@H](O)[C@@H](C)[C@H](OC(C)=O)[C@@H]1C [RIFAMPIN], the MIC50 is reported as greater than 40 µg/mL and the MIC90 is reported as greater than 40 µg/mL.
C[C@]1(COc2ccc(N3CCC(Oc4ccc(OC(F)(F)F)cc4)CC3)cc2)Cn2cc([N+](=O)[O-])nc2O1 gave an MIC50 of 0.002 µg/mL (≈ 0.00374 µM) and an MIC90 of 0.003 µg/mL (≈ 0.00561 µM).
NC[C@H]1O[C@H](O[C@H]2[C@H](O)[C@@H](O[C@H]3O[C@H](CO)[C@@H](O)[C@H](N)[C@H]3O)[C@H](N)C[C@@H]2N)[C@H](O)[C@@H](O)[C@@H]1O [KANAMYCIN] gave an MIC50 of 1.24 µg/mL (≈ 2.55 µM) and an MIC90 greater than 40 µg/mL.
NNC(=O)c1ccncc1 [ISONIAZID] showed an MIC50 of 4.37 µg/mL (≈ 31.9 µM) and an MIC90 greater than 40 µg/mL.
